From patent publication US7811352B2, “Fertilizer compositions and methods of using” (priority 2005, dated 2010) come the findings set out here.

Format in all cases: in vivo
Data set [1] concerns green height, creeping bentgrass. Put plainly: Injury rating of green height creeping bentgrass after fertilization (Example 4). The conditions noted are these: about two weeks after application. Here is the method: In this Example, the efficacy of fertilizers on green height, creeping bentgrass was examined. Fertilizer compositions according to several embodiments of the present disclosure were prepared and compared to the commercial fertilizer products, urea 46-0-0 (granular) fertilizer, Lebanon fertilizer 21-0-12 (granular, commercially available from Lebanon Seaboard Corporation, Lebanon, Pa.) and Milorganite 6-2-0 (granular, commercially available from Milorganite, Milwaukee, Wis.). The fertilizer compositions were applied to the turf grass prior to winter dormancy of the turf at a rate equivalent to supplying about 1.0 pounds of nitrogen (N) per 1000 square feet. Each of the fertilizer compositions were applied at substantially equal rates of pounds (lbs) of nitrogen (N) per 1000 square feet. Table 1 illustrates the response of green height (i.e., the height of grass on golf course green), creeping bentgrass to fertilization using various exemplary fertilizers of the present invention, taken about two weeks after application of the fertilizer. The letters in the Color and Injury columns correspond to Duncan's Multiple Range Test. Numbers (means) in a column followed by the same letter are not statistically different at P=0.05.

Data set [2] relates to fairway height, creeping bentgrass. Put plainly: Injury rating of fairway height creeping bentgrass after fertilization (Example 6). The settings on record: about two weeks after application. As to the method: In this Example, the efficacy of fertilizers on fairway height, creeping bentgrass was examined. Fertilizer compositions according to several embodiments of the present disclosure were prepared and compared to the commercial fertilizer products, urea 46-0-0 (granular) fertilizer, Lebanon fertilizer 21-0-12 (granular, commercially available from Lebanon Seaboard Corporation, Lebanon, Pa.) and Milorganite 6-2-0 (granular, commercially available from Milorganite, Milwaukee, Wis.). The fertilizer compositions were applied to turf prior to winter dormancy at a rate equivalent to supplying about 1.0 pounds of nitrogen (N) per 1000 square feet. Each of the fertilizer compositions were applied at substantially equal rates of lbs of nitrogen (N) per 1000 square feet. Table 3 illustrates the response of fairway height, creeping bentgrass to fertilization using various exemplary fertilizers of the present invention, taken about two weeks after application of the fertilizer. The letters in the Color and Injury columns correspond to Duncan's Multiple Range Test. Numbers (means) in a column followed by the same letter are not statistically different at P=0.05.

The subject of data set [3] is rhizomatous tall fescue grass. Put plainly: Turfgrass quality and color ratings, rhizomatous tall fescue (Example 14). The conditions noted are these: scale of 1-10. Here is the method: (§1) In this Example, the effect of a fertilizer comprising lysine on turfgrass growth was examined. The effects of lysine (HCl) and LIQUID LYSINE on a common type of lawn quality turfgrass (rhizomatous tall fescue) were compared with those of CoRoN® brand fertilizer.
(§2) Six fertilizer treatments comprising two concentrations of each fertilizer composition (Coron® (N—P—K, 14-2-34), LIQUID LYSINE (N—P—K, 10-2-1), and lysine (HCl) (N—P—K, 15-2-1)) were prepared and applied to 3 replications of rhizomatous tall fescue grass. The solutions of lysine (HCl) (dissolved in 0.5 gal water), LIQUID LYSINE and Coran were applied using a Birchmeier backpack sprayer with a 5 foot spray pattern, Each fertilizer treatment was applied in either a 3-split application with an application rate of 2 lb N/1000 ft^2 or a 6-split application with an application rate of 1 lb N/1000 ft^2. Plot size was 9 ft×9 ft set up as a randomized complete block. Irrigation was applied following application. Plots were rated for turfgrass quality and color (scale of 1-10 where 10=dark green turf, 1 =dead/brown turf, and 6=minimally acceptable turf and phytotoxicity (% burn) throughout the study period and compared with two untreated plots. Quality, color, and phytotoxicity were measured on day 7, day 14, day 21, day 28, day 35, and day 42 after application. All data was subject to statistical analysis and significant means were determined. Average turfgrass quality ratings for the treatments are presented in Table 21. Average turfgrass color ratings are presented in Table 22. Average phytotoxicity ratings (as % burn) are presented in Table 23.

Data set [4] relates to rhizomatous tall fescue grass. In words: Phytotoxicity (% burn), rhizomatous tall fescue (Example 14). Here is the method: as §1, §2
The mark [5] stands for this setting: 1.09 Lbs. product/1000 square feet.
Setting [6] is: 2.17 Lbs. product/1000 square feet.
Setting [7] is: 6.51 Lbs. product/1000 square feet.
Setting [8] is: 3-split, 2.0 lb N/1000 ft^2, Day 7.
Where [9] appears, read: 3-split, 2.0 lb N/1000 ft^2, Day 14.
[10] abbreviates: 3-split, 2.0 lb N/1000 ft^2, Day 21.
[11] abbreviates: 3-split, 2.0 lb N/1000 ft^2, Day 28.
Setting [12] is: 3-split, 2.0 lb N/1000 ft^2, Day 35.
The mark [13] stands for this setting: 6-split, 1.0 lb N/1000 ft^2, Day 7.
The mark [14] stands for this setting: 6-split, 1.0 lb N/1000 ft^2, Day 14.
[15] abbreviates: 6-split, 1.0 lb N/1000 ft^2, Day 21.
[16] abbreviates: 6-split, 1.0 lb N/1000 ft^2, Day 28.
[17] abbreviates: 6-split, 1.0 lb N/1000 ft^2, Day 35.

Marks after values point to notes of the source that are not given here.

As to `NC(N)=O` [Urea, urea, reference compound], the “Injury 1-9 (9 = no injury)” value in data set [1] (setting [5]) is reported as 8.0^a,b,c; in data set [1] (setting [6]), 8.7^a; in data set [1] (setting [7]) it was 8.3^a,b; in data set [2] (setting [5]), 8.7^a,b; in data set [2] (setting [6]), 7.7^a,b; in data set [2] (setting [7]), 8.7^a,b.
Regarding `Cl.NCCCC[C@H](N)C(=O)O` [Lys (HCl) 15% N, L-lysine monohydrochloride], the “Color Ratings - Tall fescue grass” value in data set [3] (setting [8]) amounted to 5.0 days; in data set [3] (setting [9]) it was 6.0b; in data set [3] (setting [10]), 7.0bc; in data set [3] (setting [11]), 8.0a; in data set [3] (setting [12]) it was 8.0a; in data set [3] (setting [13]), 6.0c. Besides, the “Color Ratings - Tall fescue grass” value in data set [3] (setting [14]) was determined as 7.0a; in data set [3] (setting [15]), 7.0bc; in data set [3] (setting [16]), 8.0a; in data set [3] (setting [17]), 8.0a. Further, the “Quality Ratings - Tall fescue grass” value came out at 5.7c in data set [3] (setting [8]); 7.0b in data set [3] (setting [9]); 7.0b in data set [3] (setting [10]); 8.0a in data set [3] (setting [11]); 8.0a in data set [3] (setting [12]); 6.0c in data set [3] (setting [13]). The “Quality Ratings - Tall fescue grass” value in data set [3] (setting [14]) is recorded as 7.0b; in data set [3] (setting [15]), 7.7a; in data set [3] (setting [16]), 8.0a; in data set [3] (setting [17]) it was 8.0a. Further, the “Phytotoxicity (% Burn) - Tall fescue grass” value in data set [4] (setting [8]) amounted to 15.0b %; in data set [4] (setting [9]), 6.7b %; in data set [4] (setting [10]), 1.7b %; in data set [4] (setting [11]), 0.0a %; in data set [4] (setting [12]), 0.0a %; in data set [4] (setting [13]), 10.0c %. In addition, the “Phytotoxicity (% Burn) - Tall fescue grass” value turned out to be 1.7bc % in data set [4] (setting [14]), 0.0b % in data set [4] (setting [15]), 0.0a % in data set [4] (setting [16]) and 0.0a % in data set [4] (setting [17]).
